Reference: ChEMBL document CHEMBL1156324, “Purine derivatives as potent gamma-secretase modulators” (Bioorg Med Chem Lett, 2010)
pIC50: −log10 of the molar value.

Assays:
[1] = Activity at gamma-secretase expressed in human SH-SY5Y cells assessed as inhibition of amyloid beta 42 production by HTRF immunoassay; format: cell-based
[2] = Activity at gamma-secretase expressed in human SH-SY5Y cells assessed as inhibition of amyloid beta 40 production by HTRF immunoassay; format: cell-based
Gamma-secretase = experiment: Inhibition of gamma-secretase-mediated Notch deltaE cleavage in human HeLa cells by luciferase assay; format: cell-based
[3] = target: Gamma-secretase (Homo sapiens) (UniProt Q96BI3+Q9NZ42+Q8WW43+P49768+Q92542+P49810); experiment: Selectivity ratio, IC50 for human gamma-secretase-mediated Notch deltaE cleavage to IC50 for gamma-secretase-mediated amyloid beta 42 production; format: protein-complex assay
[4] = Drug level in APP-YAC transgenic mouse brain at 100 mg/kg, po after 6 hrs; format: ADME, organism-based; set-up: dose 100 mg/kg, route oral; conditions: read-out: Drug uptake
Mus musculus = experiment: Inhibition of Abeta42 production in APP-YAC transgenic mouse brain at 100 mg/kg, po after 6 hrs; format: functional; conditions: read-out: INH
[5] = Drug level in APP-YAC transgenic mouse plasma at 100 mg/kg, po after 6 hrs; format: ADME, organism-based; set-up: dose 100 mg/kg, route oral; conditions: read-out: Drug uptake

Compound `Cc1ccc(C(C)(C)C)cc1Nc1nc(N2CCC(n3ccnc3)CC2)nc2ncn(C)c12` has a pIC50 [1] of 6.47 and a pIC50 [2] of 5.80.
With `COc1ccc(N2CCN(c3nc(Nc4cc(C(C)(C)C)ccc4C)c4c(ncn4CC(F)(F)F)n3)CC2(C)C)cc1` the pIC50 [1] was 7.26 and the pIC50 [2] was 6.38.
Compound `COc1ccc(N2CCN(c3nc(Nc4cc(C(C)(C)C)ccc4C)c4cccnc4n3)CC2(C)C)cc1` has a pIC50 [1] of 6.68 and a pIC50 [2] of 5.51.
For `Cc1ccc(C(C)(C)C)cc1Nc1nc(-c2ccc(Cc3ccncc3)cc2)nc2ncn(C)c12`, the pIC50 [1] was 6.10 and the pIC50 [2] was 5.96.
Compound `Cc1ccc(C(C)(C)C)cc1Nc1nc(NCCc2ccncc2)nc2ncn(C)c12` has a pIC50 [1] of 7.44 and a pIC50 [2] of 6.60.
`Cc1ccc(C(C)(C)C)cc1Nc1nc(N2CCC(c3ccccc3)C2)nc2ncn(C)c12` (centres undefined) gave a pIC50 [1] of 7.27 and a pIC50 [2] of 6.20.
In the case of `Cc1ccc(C(C)(C)C)cc1Nc1nc(N2CCC(Cc3ccncc3)CC2)nc2ncn(C)c12`, the pIC50 [1] was 7.52 and the pIC50 [2] was 6.51.
`COCCCCN1CCN(c2nc(Nc3cc(C(C)(C)C)ccc3C)c3c(ncn3C)n2)CC1` gave a pIC50 [1] of 6.06 and a pIC50 [2] of 5.33.
In the case of `COc1ccc(N2CCN(c3nc(Nc4cc(C(C)(C)C)ccc4C)c4c(ncn4C(C)C)n3)CC2(C)C)cc1`, the pIC50 [1] was 7.30 and the pIC50 [2] was 6.46.
In the case of `COc1ccc(N2CCN(c3nc(Nc4cc(C(C)(C)C)ccc4C)c4c(ncn4C)n3)CC2)cc1`, the pIC50 [1] was 7.41, the pIC50 [2] was 6.14 and the pIC50 (Gamma-secretase) was under 4.30. For the same compound, the Ratio IC50 [3] was over 1300.
Work on `COc1ccc(N2CCN(c3nc(Nc4cc(C(C)(C)C)ccc4C)c4ncn(C)c4n3)CC2(C)C)cc1` yielded a pIC50 [1] of 6.89 and a pIC50 [2] of 5.59.
In the case of `COc1ccc(N2CCN(c3nc(Nc4cc(C(C)(C)C)ccc4C)c4c(ncn4C)n3)CC2(C)C)cc1F`, the pIC50 [1] was 7.68 and the pIC50 [2] was 6.57.
For `COc1ccc(N2CCN(c3nc(Nc4cc(C(C)(C)C)ccc4C)c4[nH]cnc4n3)CC2(C)C)cc1`, the pIC50 [1] was 7.17 and the pIC50 [2] was 6.00.
Work on `Cc1ccc(C(C)(C)C)cc1Nc1nc(N2CCC(Oc3ccncc3)CC2)nc2ncn(C)c12` yielded a pIC50 [1] of 8.03 and a pIC50 [2] of 7.24.
In the case of `Cc1ccc(C(C)(C)C)cc1Nc1nc(N2CCN(Cc3ccncc3)CC2)nc2ncn(C)c12`, the pIC50 [1] was 7.92, the pIC50 [2] was 6.89 and the pIC50 (Gamma-secretase) was 5.04. It also gave a Ratio IC50 [3] of 760.
Compound `COc1ccc(NCCNc2nc(Nc3cc(C(C)(C)C)ccc3C)c3c(ncn3C)n2)cc1` has a pIC50 [1] of 6.30 and a pIC50 [2] of 5.96.
For `CCc1ccc(N2CCN(c3nc(Nc4cc(C(C)(C)C)ccc4C)c4c(ncn4C)n3)CC2)cc1`, the pIC50 [1] was 6.09 and the pIC50 [2] was 5.41.
For `COc1ccc(N2CCN(c3nc(Nc4cc(C(C)(C)C)ccc4C)cc(OC)n3)CC2(C)C)cc1`, the pIC50 [1] was 6.59 and the pIC50 [2] was 5.24.
`COc1ccc(N2CCN(c3nc(Nc4cc(C(C)(C)C)ccc4C)c4c(ncn4C)n3)CC2(C)C)cc1` showed a pIC50 [1] of 7.68, a pIC50 [2] of 6.46 and a pIC50 (Gamma-secretase) of under 4.30. The concentration at 6 h [4] was 7.8 µM, the Ratio IC50 [3] was over 2400 and the inhibition in vivo at 100 mg/kg (Mus musculus) was 73%. The concentration at 6 h [5] was 23 µM.
With `COc1ccc(N2CCN(c3nc(Nc4cc(C(C)(C)C)ccc4C)c4c(n3)nc(C(F)(F)F)n4C)CC2(C)C)cc1` the pIC50 [1] was 7.30, the pIC50 [2] was 6.00 and the pIC50 (Gamma-secretase) was under 4.30. It also gave a Ratio IC50 [3] of over 1000.
With `COc1ccc(N2CCN(c3nc(Nc4cc(C(C)(C)C)ccc4C)c4c(n3)nc(C)n4C)CC2(C)C)cc1` the pIC50 [1] was 7.66, the pIC50 [2] was 6.80 and the pIC50 (Gamma-secretase) was 5.04. For the same compound, the Ratio IC50 [3] was 420.
`COc1ccc(N2CCN(c3nc(Nc4cc(C(C)(C)C)ccc4C)c4[nH]ccc4n3)CC2(C)C)cc1` showed a pIC50 [1] of 6.12 and a pIC50 [2] of 5.52.
For `Cc1ccc(C(C)(C)C)cc1Nc1nc(N2CCN(CC3CCOCC3)CC2)nc2ncn(C)c12`, the pIC50 [1] was 6.04 and the pIC50 [2] was 5.10.
For `COc1ccc(N2CCCN(c3nc(Nc4cc(C(C)(C)C)ccc4C)c4c(ncn4C)n3)CC2)cc1`, the pIC50 [1] was 6.42 and the pIC50 [2] was 5.39.
With `Cc1ccc(C(C)(C)C)cc1Nc1nc(NCCc2cnn(C)c2)nc2ncn(C)c12` the pIC50 [1] was 7.17, the pIC50 [2] was 6.40 and the pIC50 (Gamma-secretase) was 4.66. For the same compound, the Ratio IC50 [3] was 330.
`Cc1cc(OC2CCN(c3nc(Nc4cc(C(C)(C)C)ccc4C)c4c(ncn4C)n3)CC2)ncn1` gave a pIC50 [1] of 7.80, a pIC50 [2] of 6.92 and a pIC50 (Gamma-secretase) of 4.89. For the same compound, the concentration at 6 h [4] was 7.8 µM, the Ratio IC50 [3] was 810 and the inhibition in vivo at 100 mg/kg (Mus musculus) was 69%. It also gave a concentration at 6 h [5] of 27 µM.
In the case of `Cc1ccc(C(C)(C)C)cc1Nc1nc(N2CCC(c3ccncc3)CC2)nc2ncn(C)c12`, the pIC50 [1] was 6.46 and the pIC50 [2] was 5.74.
